Data published in patent US7973047B2, “Beta-Secretase modulators and methods of use” (Amgen Inc., priority 2010, dated 2011).
Read-outs that look alike come from different tables or passages of the source.

Test system: Aβ40 in conditioned medium of cells stably expressing Amyloid Precursor Protein (APP)
Assay: BACE cell-based assay: Aβ40 in conditioned medium by sandwich ELISA
Details: unit inferred, read-out: Cell Assay
Method: The cell-based assay measures inhibition or reduction of Aβ40 in conditioned medium of test compound treated cells expressing amyloid precursor protein.
Cells stably expressing Amyloid Precursor Protein (APP) were plated at a density of 40K cells/well in 96 well plates (Costar). The cells were cultivated for 24 hours at 37° C. and 5% CO2 in DMEM supplemented with 10% FBS. The test compounds were then added to cells in 10-point dose response concentrations with the starting concentration being either 100 μM or 10 μM. The compounds were diluted from stock solutions in DMSO and the final DMSO concentration of the test compounds on cells was 0.1%. After 24 h of incubation with the test compounds the supernatant conditioned media was collected and the Aβ40 levels were determined using a sandwich ELISA. The ICso of the compound was calculated from the percent of control or percent inhibition of Aβ40 as a function of the concentration of the test compound.
The sandwich ELISA to detect Aβ40 was performed in 96 well microtiter plates, which were pre-treated with goat anti-rabbit IgG (Pierce). The capture and detecting antibody pair that were used to detect Aβ40 from cell supernatants were affinity purified pAb40 (Biosource) and biotinylated 6E10 (Signet Labs Inc.), respectively. The optimal concentration for the pAb40 antibody was 3 μg/ml in Superblock/TBS (Pierce) that was supplemented with 0.05% Tween 20 (Sigma).
Cellular supernatants were incubated with the capture antibody for 3 h at 4° C., followed by 3 wash steps in TBS-tween (0.05%). The detecting antibody incubation was for 2 h at 4° C., again followed by the wash steps as described previously. The final readout of the ELISA is Time-Resolved Fluorescence (counts per minute) using Delfia reagents Streptavidin-Europium and Enhancement solutions (Perkin Elmer) and the Victor 2 multilabel counter (Perkin Elmer).

[1] = cell based assay data of Table 4

IC50 [1] [nM] | IC50 (cell based assay data, Table 4) [nM] | Compound
23.8 |  | CC(=O)N[C@@H](Cc1ccc(F)cc1)[C@H](O)CN[C@H]1C[C@]2(CCOC2)Oc2ncc(CC(C)(C)C)cc21 [compound 672]
 | 300 | CN(C)CC(=O)N[C@@H](Cc1cccc(C#N)c1)[C@H](O)CN[C@H]1CC2(CCC2)Oc2ccc(Br)cc21 [compound 727]
62.7 |  | CC(=O)N[C@@H](Cc1ccc(F)cc1)[C@H](O)CN[C@H]1C[C@]2(C[C@@H](C)C2)Oc2ncc(CC(C)C)cc21 [compound 616, N-((1S,2R)-1-((4-fluorophenyl)methyl)-2-hydroxy-3-(((1r,3S,4′S)-3-methyl-6′-(2-methylpropyl)-3′,4′-dihydrospiro[cyclobutane-1,2′-pyrano[2,3-b]pyridin]-4′-yl)amino)propyl)acetamide]
 | 11.4 | CC(=O)N[C@@H](Cc1ccc(F)cc1)[C@H](O)CN[C@H]1CC2(CCC2)Oc2ncc(CC(C)C)cc21 [compound 845]
59 |  | COC1CN(c2nc(CC(C)(C)C)cc3c2OC2(CCC2)C[C@@H]3NC[C@@H](O)[C@H](Cc2ccc(F)cc2)NC(C)=O)C1 [compound 614]
 | 40.8 | C=CCC[C@H](NC(C)=O)[C@H](O)CN[C@H]1CC2(CCC2)Oc2ncc(CC(C)(C)C)cc21 [compound 715]
1.41 |  | CNc1nc(CC(C)(C)C)cc2c1OC1(CCC1)C[C@@H]2NC[C@@H](O)[C@H](Cc1cccc(F)c1)NC(C)=O [compound 590]
 | 8.68 | CC(=O)N[C@@H](Cc1cccc(F)c1F)[C@H](O)CN[C@H]1CC2(CCC2)Oc2ncc(CC(C)C)cc21 [compound 850]
23.6 |  | CC(=O)N[C@@H](Cc1cccc(F)c1)[C@H](O)CN[C@H]1CC2(CCC2)Oc2c1cc(CC(C)(C)C)nc2N(C)C [compound 593]
5.16 |  | CC(=O)N[C@@H](Cc1ccnc(OCC(F)(F)F)c1)[C@H](O)CN[C@H]1CC2(CCC2)Oc2ncc(CC(C)(C)C)cc21 [compound 645, N-((1S,2R)-3-(((4′S)-6′-(2,2-dimethylpropyl)-3′,4′-dihydrospiro[cyclobutane-1,2′-pyrano[2,3-b]pyridin]-4′-yl)amino)-2-hydroxy-1-((2-((2,2,2-trifluoroethyl)oxy)-4-pyridinyl)methyl)propyl)acetamide]
 | 66.2 | CC(=O)N[C@@H](Cc1ccccc1)[C@H](O)CN[C@H]1CC2(CCC2)Oc2ccc(CCCCCO)cc21 [compound 822]
112 |  | CC(=O)N[C@@H](Cc1ccc(F)cc1)[C@H](O)CN[C@H]1CC2(CCC2)Oc2c1cc(CC(C)(C)C)nc2Cl [compound 583]
 | 23.3 | CC(=O)N[C@@H](Cc1ccc(Cl)c(C(F)(F)F)c1)[C@H](O)CN[C@H]1CC2(CCC2)Oc2ncc(CC(C)(C)C)cc21 [compound 716]
615 |  | CC(=O)N[C@@H](Cc1ccc(F)cc1)[C@H](O)CN[C@H]1CC2(CCC2)Oc2c1cc(CC(C)(C)C)nc2NC(C)(C)C [compound 589]

The next lines start with the compound.

Compound | IC50 [1] [nM] | IC50 (cell based assay data, Table 4) [nM]
CC(=O)N[C@@H](Cc1ccc(F)cc1)[C@H](O)CN[C@H]1CC2(CCC2)Oc2cnc(CC(C)(C)C)cc21 [compound 570] | 22.1 | 
CCc1cc2c(s1)CC1(CCC1)C[C@@H]2NC[C@@H](O)[C@H](Cc1ccccc1)NC(C)=O [compound 653, N-((1S,2R)-3-(((4S)-2-ethyl-4,7-dihydro-5H-spiro[1-benzothiophene-6,1′-cyclobutan]-4-yl)amino)-2-hydroxy-1-(phenylmethyl)propyl)acetamide] | 127 | 
CC(=O)N[C@@H](Cc1cc(F)cc(F)c1)[C@H](O)CN[C@H]1CC2(CCC2)Oc2ccc(-c3ccn(CC(C)C)n3)cc21 [compound 780] |  | 1650
CC(=O)N[C@@H](Cc1cc(F)cc(F)c1)[C@@H](O)CN[C@H]1CC2(CCC2)Oc2c1cc(Cl)cc2-n1cccn1 [compound 786] |  | 1370
N-((1S,2R)-3-(((3S,4′S)-6′-(2,2-dimethylpropyl)-3′,4,4′,5-tetrahydrospiro[furan-3,2′-pyrano[2,3-b]pyridin]-4′-yl)amino)-1-((4-fluorophenyl)methyl)-2-hydroxypropyl)acetamide N-((1S,2R)-3-(((3R,4′S)-6′-(2,2-dimethylpropyl)-3′,4,4,5-tetrahydrospiro[furan-3,2′-pyrano[2,3-b]pyridin]-4′-yl)amino)-1-((4-fluorophenyl)methyl)-2-hydroxypropyl)acetamide [compound 658] | 20.2 | 
CC(=O)N[C@@H](Cc1ccc(Br)cc1)[C@H](O)CN[C@H]1CC2(CCC2)Oc2ncc(CC(C)(C)C)cc21 [compound 872] |  | 34.5
CC(=O)N[C@@H](Cc1ccnc(Cl)c1)[C@H](O)CN[C@H]1CC2(CCC2)Oc2ncc(CC(C)(C)C)cc21 [compound 642, N-((1S,2R)-1-((2-chloro-4-pyridinyl)methyl)-3-(((4′S)-6′-(2,2-dimethylpropyl)-3′,4′-dihydrospiro[cyclobutane-1,2′-pyrano[2,3-b]pyridin]-4′-yl)amino)-2-hydroxypropyl)acetamide] | 3.37 | 
N-((1S,2R)-3-(((4′S)-6′-bromo-3′,4′-dihydrospiro[cyclobutane-1,2′-pyrano[2,3-b]pyridin]-4′-yl)amino)-1-((4-fluorophenyl)methyl)-2-hydroxypropyl)acetamide [compound 843] |  | 503
CC(=O)N[C@@H](Cc1ccccc1)[C@H](O)CN[C@H]1CC2(CCC2)Oc2ccc(-c3cccs3)cc21 [compound 778] |  | 83.3
COC(=O)c1ccc2c(c1)[C@@H](NC[C@@H](O)[C@H](Cc1cccc(C#N)c1)NC(=O)CN(C)C)CC1(CCC1)O2 [compound 728] |  | 43.9
CC(=O)N[C@@H](Cc1ccc(Cl)cc1)[C@H](O)CN[C@H]1CC2(CCC2)Oc2ncc(C(F)C(C)C(F)(F)F)cc21 (some centres unmarked) [compound 860] |  | 452
COC(=O)N[C@@H](Cc1cc(F)cc(F)c1)[C@H](O)CN[C@H]1CC2(CCC2)Oc2ncc(CC(C)(C)C)cc21 [compound 876] |  | 10.8
COC1CN(c2nc(CC(C)(C)C)cc3c2OC2(CCC2)C[C@@H]3NC[C@@H](O)[C@H](Cc2cccc(F)c2)NC(C)=O)C1 [compound 604] | 5.79 | 
CC(=O)N[C@@H](Cc1cc(F)cc(Cl)c1)[C@H](O)CN[C@H]1CC2(CCC2)Oc2ncc(CC(C)C)cc21 [compound 847] |  | 4.27
COc1ccc(C[C@H](NC(C)=O)[C@@H](O)CN[C@H]2CC3(CCC3)Oc3ncc(CC(C)(C)C)cc32)cc1F [compound 666] | 162 | 
N-((1S,2R)-3-(((4R)-6-(2,2-dimethylpropyl)-2,2-dimethyl-1,2,3,4-tetrahydro-4-quinolinyl)amino)-2-hydroxy-1-(phenylmethyl)propyl)acetamide N-((1S,2R)-3-(((4S)-6-(2,2-dimethylpropyl)-2,2-dimethyl-1,2,3,4-tetrahydro-4-quinolinyl)amino)-2-hydroxy-1-(phenymethyl)propyl)acetamide [compound 689] | 72.8 | 
CC(=O)N[C@@H](Cc1ccc(F)c(Cl)c1)[C@H](O)CN[C@H]1CC2(CCC2)Oc2ncc(CC(C)(C)C)cc21 [compound 706] | 3.11 | 
CC(=O)N[C@@H](Cc1ccccc1)[C@H](O)CN[C@H]1CC(C)(C)Nc2ccc(CC(C)(C)C)cc21 [compound 692] | 30.6 | 
CC(=O)N[C@@H](Cc1c(F)ccc(F)c1F)[C@H](O)CN[C@H]1CC2(CCC2)Oc2ncc(CC(C)(C)C)cc21 [compound 870] |  | 35.6
CC(=O)N[C@@H](Cc1ccc(Cl)cc1)[C@H](O)CN[C@H]1CC2(CCC2)Oc2ncc(CC(C)(C)C)cc21 [compound 707] | 12.6 | 
CC(=O)N[C@@H](Cc1ccn(C)c(=O)c1)[C@H](O)CN[C@H]1CC2(CCC2)Oc2ncc(CC(C)(C)C)cc21 [compound 649] | 30 | 
CC(=O)N[C@@H](Cc1cccc(C(F)(F)F)c1)[C@H](O)CN[C@H]1CC2(CCC2)Oc2ncc(CC(C)C)cc21 [compound 719] |  | 9.35
CC(=O)N[C@@H](Cc1ccc(F)cc1)[C@H](O)CN[C@H]1CC2(CCC2)Oc2cc(F)c(-n3cccn3)cc21 [compound 808] |  | 1940
CC(=O)N[C@@H](Cc1ccccc1)[C@H](O)CN[C@H]1CC2(CCC2)Oc2cnc(CC(C)(C)C)cc21 [compound 749] |  | 14
CCC(CC)Cc1cnc2c(c1)[C@@H](NC[C@@H](O)[C@H](Cc1cc(F)cc(F)c1)NC(C)=O)CC1(CCC1)O2 [compound 691] | 95.8 | 
CC(=O)N[C@@H](Cc1cccc(F)c1)[C@H](O)CN[C@H]1CC2(CCC2)Oc2ncc(C(O)C(C)C(F)(F)F)cc21 (some centres unmarked) [compound 863] |  | 1830
CC(=O)N[C@@H](Cc1cc(F)cc(F)c1)[C@H](O)CN[C@H]1CC2(CCC2)Oc2ncc([C@H](F)C(C)(C)C)cc21 [compound 681] | 3.46 | 
CC(=O)N[C@@H](Cc1ccccc1)[C@H](O)CN[C@H]1CC2(CCC2)Oc2c1cc(CC(C)(C)C)nc2N1CCOCC1 [compound 754] |  | 52.2
CC(=O)N[C@@H](Cc1ccccc1)[C@H](O)CN[C@H]1CC2(CCC2)Oc2ccc(NC3CCCC3)cc21 [compound 771] |  | 166
CC(=O)N[C@@H](Cc1ccc(F)cc1)[C@@H](O)CN[C@H]1CC2(CCC2)Oc2ncc(CC(C)(C)F)cc21 [compound 574] | 111 | 
